These compounds were tested on ZIKV (HS-2015-BA-01) (assay: Plaque titration assay of supernatant from ZIKV-infected Vero CCL-81 cells treated with compound). Details: 30, 10 and 3 microM (AEE-788 and Olcegepant: 10 and 3 microM); MOI 0.1; two treatments 24 h apart; compared to vehicle control; values only in Figures 1 to 8.
Format: cell-based, Zika Virus
Description: The above compounds selected by the CADD analysis were tested in a ZIKV Vero CCL-81 cells (kidney epithelial cells from African green monkey) assay. This assay is based on viral infection of Vero cells followed by visual monitoring of cytopathic effects of the virus.
In details, the above compounds were diluted to the final concentrations of 30 microM, 10 microM and 3 microM. The final volume required for treatment was 200 microliters per well, in a total of 12 wells.
For infection of the cells, ZIKV (HS-2015-BA-01), isolated from a viremic patient with symptomatic infection in Bahia State, Brazil, in 2015, was used. The complete genome of the virus is under access KX520666 in Genbank. Viral dilutions were prepared in Multiplicity of Infection (MOI) at 0.1 according to a standardized method.
In particular, 37,9 microl of virus (6x10^7 pfu/mL) was used or a total of 25.000 microl (25 ml) RPMI-0% FBS medium
100 microliters of the viral dilution (MOI 0,1) were added to each well and incubated at 5% of CO2 at T= 37°C for 1 hour for adsorption step, swift rocking every 15'.
After discarding the supernatant, 200 microliters of diluted compounds at the different concentrations described above, or vehicle were added for each compound and left in incubation at 5% of CO2 at T= 37°C for 24 hours.
After 24 hours of the first treatment the treatment was repeated a second time, with the same concentration of each compound, and at the same conditions (5% of CO2 at T= 37°C for […]).
After 24 hours, the supernatant was collected and used to perform MTT, LDH plaque titration assays, as described above.
Vero CCL-81 cells (kidney epithelial cells from African green monkey) were seeded in 24-well plates at a density of […].
Cells were maintained in RPMI 1640 medium (Cultilab) supplemented with 10% FBS (Cultilab), 2 mM L-glutamine (Gibco) and 100U/50µg penicillin/streptomycin (Sigma-Aldrich) for 24 h at 37°C in a 5% CO2 incubator.
Serial ten-fold dilutions of viral suspension in sterile dilution tubes were prepared (10-1 up to 10-4). To this aim, tubes were filled with 450 microl of medium 0% SFB and 50 microl of the sample added on the first tube. The same procedure was repeated to obtain serial dilutions by passing 50 microliters to the next dilution and successively for the other dilutions. 300 µl of each serial dilution were added into each of the two wells of 24-well plate, maintaining two wells without infection.
The inoculated plate was incubated at 37°C for 1 hour in a 5% CO2 incubator to allow virus adsorption, swift rocking every 15'. Once discard the cell supernatant from all wells, 1 ml of 1,60% semi-solid carboxymethyl cellulose (CMC) overlay medium with 2% FBS was added to each well to limit the virus dissemination.
The plate was left 4 days at 37°C in a 5% CO2 incubator. Then cell monolayer was incubated with 1 ml of the 10% formol for a minimum 18 hours at room temperature for fixation. Once removed and fixed the overlay medium, the cell monolayer was washed in running water, stained with 1 ml of the 0.04% Violet crystal for 1 hour at room temperature, and the count of viral plaques to calculate plaque-forming unit (PFU) was conducted.

SMILES	virus replication (viral load expressed as log10 plaque forming equivalents)
CCOc1nc2cccc(C(=O)OC(C)OC(=O)OC3CCCCC3)c2n1Cc1ccc(-c2ccccc2-c2nnn[nH]2)cc1 (racemic) [Candesartan cilexetil, (±)-2-Ethoxy-1-[2'-(1 H-tetrazol-5-yl)biphenyl-4-ylmethyl]-1 H-benzimidazole-7-carboxylic acid 1-(cyclohexyloxycarbonyloxy) ethyl ester]	inhibition of virus replication
CCN1CCN(Cc2ccc(-c3cc4c(N[C@H](C)c5ccccc5)ncnc4[nH]3)cc2)CC1 [AEE-788, 6-[4-(4-Ethylpiperazin-1-ylmethyl)phenyl]-N-[1(R)-phenylethyl]-7H-pyrrolo[2,3-d]pyrimidin-4-amine]	inhibition of virus replication
Cn1c(=O)n(-c2ccc(C(C)(C)C#N)cc2)c2c3cc(-c4cnc5ccccc5c4)ccc3ncc21 [Dactolisib, 2-Methyl-2-[4-[3-methyl-2-oxo-8-(3-quinolinyl)-2,3-dihydro-1 H-imidazo[4,5-c]quinolin-1-yl]phenyl]propanenitrile]	inhibition of virus replication
NCCCC[C@H](NC(=O)[C@@H](Cc1cc(Br)c(O)c(Br)c1)NC(=O)N1CCC(N2Cc3ccccc3NC2=O)CC1)C(=O)N1CCN(c2ccncc2)CC1 [Olcegepant, N-[2-[5-Amino-1 (S)-[4-(4-pyridyl)piperazin-1-ylcarbonyl]pentylamino]-1(R)-(3,5-dibromo-4-hydroxybenzyl)-2-oxoethyl]-4-(2-oxo-1,2,3,4-tetrahydroquinazolin-3-yl)piperidine-1-carboxamide]	inhibition of virus replication
CC[C@@H]([C@H](C)O)n1ncn(-c2ccc(N3CCN(c4ccc(OC[C@@H]5CO[C@@](Cn6cncn6)(c6ccc(F)cc6F)C5)cc4)CC3)cc2)c1=O [Posaconazole, 4-[4-[4-[4-[5(R)-(2,4-Difluorophenyl)-5-(1,2,4-triazol-1-ylmethyl)tetrahydrofuran-3(R)-ylmethoxy]phenyl]piperazin-1-yl]phenyl]-2-[1(S)-ethyl-2(S)-hydroxypropyl]-3,4-dihydro-2H-1,2,4-triazol-3-one]	inhibition of virus replication
Cc1cc(/C=C/C#N)cc(C)c1Nc1ccnc(Nc2ccc(C#N)cc2)n1.Cl [Rilpivirine hydrochloride, 4-[4-[4-[(E)-2-Cyanovinyl]-2,6-dimethylphenylamino]pyrimidin-2-ylamino]benzonitrile hydrochloride]	inhibition of virus replication
